Reference: US20250302862A1, “SMALL RNA DRUG FOR INHIBITING ACTIVITY OF CANCER CELLS” (Institute of Basic Medical Sciences Chinese Academy of …, priority 2022, published 2025)

Key:
cyclooxygenase-2 (COX2) [1] = test: COX2 mRNA (RT-PCR/QPCR) and protein (western blot) in H460 cells; assay type: cell-based, human; details: final concentration 10 nmol/L
Description: Method for cell experiment: H460 cells with a cell density of more than 90% in 10 cm2 dishes were plated in 12-well plates (2 plates) according to the cell growth rate, and transfected after 12 h, and the groups were divided as follows: • blank control group (4 wells): 200 uL of opti-MEM per well • negative control group (NC group) and experimental group (3 wells each): the system of each well was as follows • A. 100 uL of opti-MEM and 2 uL of iMax were mixed well for 5 min • B. 100 uL of opti-MEM and 5 uL of small RNA (final concentration 10 nmol/L) were mixed well • C. solution A and solution B were mixed well and let stand for 15 min, and then was added to each well at a 200 uL system • Note: 100 uL of nuclease-free water was added to 2 nmol of small RNA dry powder for dissolution at a storage concentration of 20 umol/L
Cells were collected with Trizo after 24 h of incubation and RNA was extracted. Cells on another plate were collected with RIPA lysis buffer after 48 h of incubation and protein was extracted.
(§1) The relative amount of COX-2 mRNA in the RNA in Method 1 and Method 2 was measured by RT-PCR and QPCR technologies.
(§2) The relative amount of COX-2 protein in the protein in Method 1 and Method 2 was measured by western blot technology.

[2] = Body weight of mice with primary lung cancer; assay type: in vivo, mouse; details: KP mice, 10 nmol daily by gavage for one month, sphingosine(d18:1) delivery system, vs NC group
Text: (§3) The mouse model of primary lung cancer was Kras^LSL-G12Dp53^fl/fl (KP).
(§4) Mice were weighed and assigned to the negative control group (NC group) and HQi-sRNA-2 group randomly. The NC group was the negative control, in which a sphingosine(d18:1)-NC-sRNA herbal medicine delivery system was constructed from NC-sRNA. The HQi-sRNA-2 group was the experimental group, in which a sphingosine(d18:1)-HQi-sRNA-2 herbal medicine delivery system was constructed from HQi-sRNA-2.
(§5) The herbal medicine delivery system was constructed by heating and mixing 10 nmol of sRNA, 100 ug of sphingosine(d18:1) and 300 ul of sterile enzyme-free water in a water bath at 90° C. for 15 minutes.
(§6) Each mouse with a uniform body weight was dosed by gavage. Each mouse was given 10 nmol of HQi-sRNA-2 mimic daily by gavage for one month.
The body weight of each mouse was recorded, the curve of body weight over time was plotted, and statistical analysis was performed.

[3] = test system: primary lung cancer Kras^LSL-G12Dp53^fl/fl (KP) mouse model; test: Tumor tissue apoptosis, caspase-3 immunohistochemistry of lung sections; assay type: in vivo; details: 10 nmol daily by gavage for one month, vs NC group
Text: as §3, §4, §5, §6
The lungs of mice were collected to prepare pathological sections. The left lung was collected and sliced at the largest surface for every mouse, and subjected to immunohistochemistry of caspase-3. The area of positive cell population in the whole pathological section was counted, the tumor burden was calculated, and statistical analysis was performed.

cyclooxygenase-2 (COX2) [4] = test: COX2 mRNA and protein in lung tissues of mice with lung cancer; assay type: in vivo, mouse; details: lung tissues of KP mice, 10 nmol daily by gavage for one month
Text: Methods for animal experiment: the mouse model of primary lung cancer was KrasLSL-G12Dp53fl/fl (KP).
Mice were weighed and assigned to the NC group and HQi-sRNA-2 group randomly. The NC group was the negative control, in which a sphingosine(d18:1)-NC-sRNA herbal medicine delivery system was constructed from NC-sRNA. The HQi-sRNA-2 group was the experimental group, in which a sphingosine(d18:1)-HQi-sRNA-2 herbal medicine delivery system was constructed from HQi-sRNA-2.
as §5, §6
RNA and protein were extracted from the right lung of all mice.
as §1, §2

[5] = test system: breast cancer MDA-MB-231 cells; test: Concentration-dependent proliferation inhibition, MTS; assay type: cell-based; details: gradient 0.01-100 noml/L, MTS after 48 h
Description: 1) Breast cancer MCF7 cells, breast cancer MDA-MB-231 cells, gastric cancer AGS cells, pancreatic cancer HS766T cells, pancreatic cancer ASPC-1 cells, and prostate cancer PC-3 cells with a cell density of more than 90% in 10 cm^2 plates were plated in 96-well according to the cell growth rate. Transfection was performed after 12 h, and the groups (3 wells per group) were divided as follows: • blank control group: 20 uL of opti-MEM • negative control group (NC group) and experimental group: • A. 10 uL of opti-MEM and 0.2 uL of iMax were mixed well for 5 min • B. 10 uL of opti-MEM and small RNA were mixed well (the concentration gradient of experimental group was set as: 0.01 noml/L, 0.03 noml/L, 0.1 noml/L, 0.39 noml/L, 0.78 noml/L, 1.56 noml/L, 3.125 noml/L, 6.25 noml/L, 12.5 noml/L, 25 noml/L, 50 noml/L, 100 noml/L; the final concentration of sRNA in NC group was 100 noml/L) • C. solution A and solution B were mixed well and let stand for 15 min, and then was added at a 20 uL system • Note: 100 uL of nuclease-free water was added to 2 nmol of small RNA dry powder for dissolution at a storage concentration of 20 umol/L
2) Detection of cell viability: MTS detection was performed after 48 h.
Formulation of MTS detection solution was as follows: opti-MEM:MTS A solution:MTS B solution=100:20:1. […] Absorbance values at wavelengths of 490 nm and 630 nm were measured in a microplate reader. […]

Substance	mRNA level of COX2 (cyclooxygenase-2 (COX2) [1]; 24 h, RT-PCR and QPCR)	protein level of COX2 (cyclooxygenase-2 (COX2) [1]; 48 h, western blot)	body weight of mice with primary lung cancer [2]	tumor tissue apoptosis of mice with primary lung cancer [3]	mRNA level of COX2 (cyclooxygenase-2 (COX2) [4]; RT-PCR and QPCR)	protein level of COX2 (cyclooxygenase-2 (COX2) [4]; western blot)	proliferation-inhibiting function (cell activity, MTS) [5]
HQi-sRNA-2: small RNA derived from Scutellaria baicalensis, sequence AUGGUUCGAUUCCGGAGAGGG (listed as RNA, chemistry not given here)	significantly down-regulate	significantly down-regulate	significantly maintained	significantly increased	significantly down-regulate	significantly down-regulate	
MDM-sRNA-39: small RNA derived from Maytenus hookeri, sequence GGGAUUGUAGUUCAAUUGGUCAGAGCACC (listed as RNA, chemistry not given here)							concentration-dependent
MDM-sRNA-163: small RNA derived from Maytenus hookeri, sequence UGACUCUAGUCCGACUUUGUGAAAUGACU (listed as RNA, chemistry not given here)							concentration-dependent
